Laboratory results as given in article PMC7946228, “Discovery of novel candidates for anti-liposarcoma therapies by medium-scale high-throughput drug screening” (PLoS ONE, 2021).
Read-outs that look alike come from different tables or passages of the source. One block for each compound: values may come before it. Numbered stars: 1 amine (or outer) side, 2 acyl side, 3 side chain; on linkers, the order of the positions; unused ones are H or OH. Bridge positions count the residues as written; N and C are the ends. Square brackets hold non-standard residues; d marks the D form. Peptide text beside a SMILES is read from it. I, II: the chains in the order shown. Actinocin(9to1) = Cc1c2oc3c(C)ccc(C(=O)[*:1])c3nc-2c(C(=O)[*:2])c(N)c1=O; NMeV = CN[C@H](C(=O)O)C(C)C; Sar = CNCC(=O)O

Key:
[1] = tested on: 13 liposarcoma cell lines; assay: High-throughput drug screen, ATP viability 72h; type: cell-based, human; details: five concentrations 1 nM to 10 μM, combined viability (AUC)
Description: 349 compounds from anti-cancer Selleck Chemical library were pre-aliquoted at five concentrations, increasing in 10-fold steps from 1 nM to 10 μM, in 384-well plates using an Echo Liquid Handler. Each plate also contained positive (benzethonium chloride, BzCl) and negative (DMSO only) controls. Additional drugs were added manually to the same plates at the same concentration range. Cells were seeded directly into the plates containing the drugs. After 72h viability was assessed through levels of ATP, with Cell Titer Glow assay (Promega, Wisconsin, United States) and luminescence quantified using a […]. Data from drug screens were analyzed with R version 3.4.0 (R_Core_Team, 2017) normalized to median positive (BzCl) and median negative (DMSO) controls using formula: (drug-BzCl)/(DMSO–BzCl), with total viability calculated as the area under the curve over all five drug concentrations, adjusted using qualitatively constrained quantile smoothing splines, R package ‘cobs’ version 1.3–3 [22]. The raw values of positive (BzCl) and median negative (DMSO) controls on each assay plate were aggregated and used to calculate z’-factors, as a measure of assay performance and data quality, with a z’-factor > 0.5 representing acceptable data. For two cases where the z’-factor was below 0.5, strictly standardized mean difference (SSMD) was additionally calculated, giving the population value (β) of SSMD -4 and -5, respectively, indicating good quality. Data visualization was done in R using ‘ComplexHeatmaps’ package version 1.20.0 [24]. The same assay was also used when assessing viability of non-tumor cells and tumor explants.
Thirteen liposarcoma cell lines representing dedifferentiated, well-differentiated, pleomorphic and unspecified subtype liposarcomas were grown in 384-well format in the presence one of the 353 compounds, each at five 10-fold increasing concentrations (from 1 nM to 10 μM) for 72h, after which their viability was scored by measuring ATP levels. The viability was normalized to positive and negative controls and was calculated as sum of viabilities obtained with all the five used concentrations. That means if, e.g., the compound was killing cells at all the tested concentrations, the viability value would be 0, and if the compound was not killing cells at any tested concentrations, the value would be […]. If the compound was reducing the viability to 50% at 100 nM, and to 0% at 1 and 10 μM, the total viability would be calculated as 2 (see scheme on the top of Fig 1A). Within the tested concentration range, the majority of the drugs had very little effect on viability regardless of the target or pathway (Figs 1A and S1). The drug screen included 28 chemotherapeutic drugs currently in clinical use in Norway for the treatment of sarcoma.

liposarcoma cell lines [2] = assay: Cell cycle analysis of non-apoptotic cells (propidium iodide); type: cell-based, human; details: growth arresting concentration, non-apoptotic fraction
Description: (§1) Cells were treated with drugs at the concentrations corresponding to previously established growth arresting concentrations and collected between 17 and 72h. Time of collection was individual for every drug/cell line combination; cells were collected after the beginning of complete growth inhibition (based on the growth curves data) but only when first signs of morphological change or cell death were visible (estimated microscopically approximately every 2h). After methanol fixation, cells were barcoded with different combinations of Pacific Blue/Pacific Orange dyes (Thermo Fisher Scientific) for different drug treatments. After mixing, cells were incubated in the TUNEL reaction mix for 1h at 37°C, according to the manufacturer’s instructions (Roche, Germany), stained with Streptavidin-Cy5 conjugated Ab and digested with RNAse. Cells were counter-stained with propidium iodide and analyzed using LSR II Flow Cytometer (BD Biosciences, NJ, USA. The data were processed with FlowJo Version 7.6.5 (Tree Star, Ashland, USA). The gating strategy is presented in Fig 3A. Cy-5 positive cells (as compared to control sample) were calculated as apoptotic. Cell cycles of non-apoptotic cells were analyzed using the built in FlowJo Cell Cycle Analysis module. Three independent biological replicates were done for each cell line/drug combination with exception of FU-DDLS-1 and T1000 –for which we only had two replicates available.

[3] = cited from earlier work
[4] = tested on: LPS141 liposarcoma cell line; assay: CellTiter-Glo viability, GR50, 72h; type: cell-based, human; details: Homo sapiens, LPS141; LPS 141, 72h; read-out: Half maximum effective concentration corrected for cell growth (GR50)
Description: (§2) Cell viability was measured using the CellTiter-Glo Luminescent Cell Viability Assay (Promega, Wisconsin, United States). For each experiment the same cell numbers were seeded as for the proliferation experiments. Seven drug concentrations were used, starting from 100μM with 10-fold dilutions and also a vehicle control appropriate for each drug (DMSO or ethanol). After 72h of drug or vehicle control treatment levels of ATP were measured with CellTiter-Glo. The data from six to nine biological replicates, each with three technical replicates were collected. A nonlinear regression model with different four-parameter log-logistic function was used for modelling of the drug dose-response using ‘GRmetrics’ R package version 1.8.1 [26]. The calculated GR50 metric is equivalent to the IC50 metric but takes into account the growth rate of cells. Therefore, it estimates better the effect of the compound on cell viability and allows for comparison between different cell lines with different growth rates.

[5] = tested on: NRH-LS1 liposarcoma cell line; assay: CellTiter-Glo viability, GR50, 72h; type: cell-based, human; details: Homo sapiens; NRH-LS1, 72h; read-out: Half maximum effective concentration corrected for cell growth (GR50)
Description: as §2

[6] = tested on: SA-4 liposarcoma cell line; assay: CellTiter-Glo viability, GR50, 72h; type: cell-based, human; details: Homo sapiens; SA-4, 72h; read-out: Half maximum effective concentration corrected for cell growth (GR50)
Description: as §2

[7] = tested on: GOT3 liposarcoma cell line; assay: CellTiter-Glo viability, GR50, 72h; type: cell-based, human; details: Homo sapiens; GOT3, 72h; read-out: Half maximum effective concentration corrected for cell growth (GR50)
Description: as §2

[8] = tested on: LPS853 liposarcoma cell line; assay: CellTiter-Glo viability, GR50, 72h; type: cell-based, human; details: Homo sapiens; LPS 853, 72h; read-out: Half maximum effective concentration corrected for cell growth (GR50)
Description: as §2

[9] = tested on: T1000 liposarcoma cell line; assay: CellTiter-Glo viability, GR50, 72h; type: cell-based, human; details: Homo sapiens; T1000, 72h; read-out: Half maximum effective concentration corrected for cell growth (GR50)
Description: as §2

[10] = tested on: LPS510 liposarcoma cell line; assay: CellTiter-Glo viability, GR50, 72h; type: cell-based, human; details: Homo sapiens; LPS 510, 72h; read-out: Half maximum effective concentration corrected for cell growth (GR50)
Description: as §2

[11] = tested on: LS2 liposarcoma cell line; assay: CellTiter-Glo viability, GR50, 72h; type: cell-based, human; details: Homo sapiens; LS2, 72h; read-out: Half maximum effective concentration corrected for cell growth (GR50)
Description: as §2

[12] = tested on: T778 liposarcoma cell line; assay: CellTiter-Glo viability, GR50, 72h; type: cell-based, human; details: Homo sapiens; T778, 72h; read-out: Half maximum effective concentration corrected for cell growth (GR50)
Description: as §2

[13] = tested on: LiSa-2 liposarcoma cell line; assay: CellTiter-Glo viability, GR50, 72h; type: cell-based, human; details: Homo sapiens; LiSa-2, 72h; read-out: Half maximum effective concentration corrected for cell growth (GR50)
Description: as §2

[14] = tested on: T449 liposarcoma cell line; assay: CellTiter-Glo viability, GR50, 72h; type: cell-based, human; details: Homo sapiens; T449, 72h; read-out: Half maximum effective concentration corrected for cell growth (GR50)
Description: as §2

[15] = tested on: FU-DDLS-1 liposarcoma cell line; assay: CellTiter-Glo viability, GR50, 72h; type: cell-based, human; details: Homo sapiens; FU-DDL S-1, 72h; read-out: Half maximum effective concentration corrected for cell growth (GR50)
Description: as §2

[16] = tested on: SW872 liposarcoma cell line; assay: CellTiter-Glo viability, GR50, 72h; type: cell-based, human; details: Homo sapiens, SW872; SW 872, 72h; read-out: Half maximum effective concentration corrected for cell growth (GR50)
Description: as §2

liposarcoma cell lines [17] = assay: Drug withdrawal, reversibility of growth arrest; type: cell-based, human
Description: The cellular proliferation rate was measured using the IncuCyte ZOOM live-cell imaging system (Essen Bioscience, Birmingham, UK) with the corresponding software application (version 2013BRev1). First the growth rate for each cell line was established to estimate the seeding numbers of cells corresponding to 15–30% of confluence at the start of the experiment and maximum 70% after 72h. The drug treatment was initiated approximately 18h after seeding. The proliferation rate was measured as cell confluence over time through the acquisition of photographs under phase contrast every third hour for the entire duration of the drug treatment. During the drug treatment, media were not changed, and cells were not split. The growth reducing drug concentration was defined as lowest drug concentration leading to significant decrease of cellular growth between 40 and 72h after start of treatment. To determine that concentration, plots were generated using IncuCyte software and differences in growth between 40 and 72h were calculated using least-square means with the ‘emmeans’ R package version 1.4.3 [25]. Growth arresting concentrations were defined as minimal drug concentration under which cell confluence between 96 and 120h increases by less than 3%. Though growth arrest occurred much earlier, these time points ensured that the growth arrest is a stable phenomenon. These growth arresting concentrations were used for drug withdrawal, apoptosis and cell cycle experiments. All the data were verified with the plots. The presented values correspond to median values from two (T449, all compounds) to five (all cell lines, triptolide) biological replicates.
An important prerequisite for clinical implementation of these compounds as treatment for liposarcoma is irreversibility of the induced growth inhibition. We thus assessed if the drugs were only transiently cytostatic, which is especially important in case of the compounds that seem to work mainly via cell cycle arrest (APO866, GSK2126458). Cells were treated with the compounds at growth arresting concentrations for 120h after which the compounds were removed and cell numbers were monitored for another 72h. […] To irreversibly arrest cell proliferation GSK2126458 had to be used at 10x higher concentrations (100x for GOT3) (S5 Fig). Those concentrations are above physiological ranges (see Table 2), and these effects should be accounted for assessing use of GSK2126458 in clinic.

liposarcoma cell lines [18] = assay: TUNEL apoptosis assay by flow cytometry; type: cell-based, human; details: growth arresting concentration, 17-72h, majority of cell lines
Description: as §1

SMILES: CC(C)C[C@H](NC(=O)[C@H](Cc1ccccc1)NC(=O)c1cnccn1)B(O)O [Bortezomib]
effect on viability in the drug screen [1]: top candidates from the screen

IC50 [4]: 182 nM
IC50 [5]: 469 nM
IC50 [6]: 86 nM
IC50 [7]: 28 nM
IC50 [8]: 50 nM
IC50 [9]: 14 nM
IC50 [10]: 82 nM
IC50 [11]: 110 nM
IC50 [12]: 52 nM
IC50 [13]: 54 nM
IC50 [14]: 10 nM
IC50 [15]: 96 nM
IC50 [16]: 401 nM
SMILES: COc1ncc(-c2ccc3nccc(-c4ccnnc4)c3c2)cc1NS(=O)(=O)c1ccc(F)cc1F [GSK2126458]
cell cycle phase in which cells are blocked (liposarcoma cell lines [2]): G1 phase
Cmax ([3]; phase I trial of multiple tumor types): ~100 nM
Cmax ([3]; read-out: clinically relevant concentration (Cmax or Css), values show Cmax or Css (italics), patients): 100 nM
reversibility of growth inhibition after drug removal (liposarcoma cell lines [17]; 120h treatment at growth arresting concentration, then 72h without drug, except T778 with MLN9708): All of the tested cell lines regained their growth rate
time to regain growth rate after withdrawal (liposarcoma cell lines [17]; all tested cell lines, 120h treatment at growth arresting concentration): ≤ 3 h
concentration needed for irreversible growth arrest relative to growth arresting concentration (liposarcoma cell lines [17]; cell lines that resumed growth, 100x for GOT3 with GSK2126458): 10 x higher
apoptosis (increase in % of apoptotic cells) (liposarcoma cell lines [18]): ≤ 5%

SMILES: Cc1c2oc3c(C)ccc(C(=O)N[C@@H]4C(=O)N[C@H](C(C)C)C(=O)N5CCC[C@H]5C(=O)N(C)CC(=O)N(C)[C@@H](C(C)C)C(=O)O[C@@H]4C)c3nc-2c(C(=O)N[C@@H]2C(=O)N[C@H](C(C)C)C(=O)N3CCC[C@H]3C(=O)N(C)CC(=O)N(C)[C@@H](C(C)C)C(=O)O[C@@H]2C)c(N)c1=O [actinomycin D] (I: T[dV]P[Sar][NMeV] / II: T[dV]P[Sar][NMeV]; ester I:1-I:C, II:1-II:C; linker I:N-II:N via Actinocin(9to1))
effect on viability in the drug screen [1]: significant impact on viability

SMILES: CC(=O)O[C@@]12CO[C@@H]1C[C@H](O)[C@@]1(C)C(=O)[C@H](O)C3=C(C)[C@@H](OC(=O)[C@H](O)[C@@H](NC(=O)OC(C)(C)C)c4ccccc4)C[C@@](O)([C@@H](OC(=O)c4ccccc4)[C@H]21)C3(C)C [docetaxel]
effect on viability in the drug screen [1]: significant impact on viability

SMILES: Nc1ccn([C@@H]2O[C@H](CO)[C@@H](O)C2(F)F)c(=O)n1 [gemcitabine]
effect on viability in the drug screen [1]: significant impact on viability

SMILES: Cc1ccc(C(=O)N(CCCN)[C@@H](c2nc3cc(Cl)ccc3c(=O)n2Cc2ccccc2)C(C)C)cc1 [ispinesib]
effect on viability in the drug screen [1]: top candidates from the screen

SMILES: CC(=O)O[C@H]1C(=O)[C@@]2(C)[C@H]([C@H](OC(=O)c3ccccc3)[C@]3(O)C[C@H](OC(=O)[C@H](O)[C@@H](NC(=O)c4ccccc4)c4ccccc4)C(C)=C1C3(C)C)[C@]1(OC(C)=O)CO[C@@H]1C[C@@H]2O [paclitaxel]
effect on viability in the drug screen [1]: significant impact on viability

SMILES: CC[C@]1(O)C[C@H]2CN(CCc3c([nH]c4ccccc34)[C@@](C(=O)OC)(c3cc4c(cc3OC)N(C=O)[C@H]3[C@@](O)(C(=O)OC)[C@H](OC(C)=O)[C@]5(CC)C=CCN6CC[C@]43[C@@H]65)C2)C1 [vincristine]
effect on viability in the drug screen [1]: significant impact on viability
